From publication PMC11091117, “A fluorescently-tagged tick kinin neuropeptide triggers peristalsis and labels tick midgut muscles” (Scientific Reports, 2024) come the findings set out here.

“Also recorded” adds a separate entry of the source.

The subject of assay [1] is tick kinin receptor (recombinant R. microplus receptor, CHO-K1 BMLK3 cells). The experiment in a line: Confocal visualization of recombinant kinin receptor on live BMLK3 cells with fluorescently labeled kinin peptide. The format is binding, Rhipicephalus microplus. From the text:
Three peptides were used in this study. These included: 1) the ligand for the endogenous tick kinin receptor from Rhipicephalus sanguineus, Rhisa-kinin 8 peptide of sequence GTGEDQAFSPWGamide (Rhisa-K-8; RK8; of identical sequence to Rhimi-K-8 in Rhipicephalus microplus)[48], 2) the same peptide but fluorescently labeled at the N-terminus with tetramethylrhodamine (TMR) a red fluorescent dye, designated TMR-Rhisa-K-8 (TMR-RK8), and 3) a labeled peptide synthesized with the scrambled sequence of the kinin ligand, designated TMR-Scrambled. The sequence of TMR-RK8 was TMR-C-GTGEDQAFSPWGamide). The TMR-Scrambled kinin (TMR-C-GTQWGPGFEADSamide) served as a negative control for tissue labeling. […]
The BMLK3 and V/O cells (5000–10,000 cells) were seeded separately in 200 µL selective media onto the two chambers of the cover glass (Lab-Tek Chambered Coverglass, 4.2 cm^2 area, #1.0 German borosilicate glass, sterile, Cat # 155,380, Thermo Fisher Scientific Inc., Walthams, MA) and grown in the incubator overnight at 37 °C and 5% CO2. The next day, cells would be ready for fluorescent labeling: the selective media was replaced with 200 µL HBSS to rinse the cells. […] Images were analyzed and computer-colored using Fiji/ImageJ (National Institutes of Health, Bethesda, MD). […]

The test system of assay [2] is tick kinin receptor in midgut muscles. Description: Fluorescent labeling of live midgut ex vivo, confocal microscopy. The format is binding, Rhipicephalus sanguineus. From the text:
Three peptides were used in this study. These included: 1) the ligand for the endogenous tick kinin receptor from Rhipicephalus sanguineus, Rhisa-kinin 8 peptide of sequence GTGEDQAFSPWGamide (Rhisa-K-8; RK8; of identical sequence to Rhimi-K-8 in Rhipicephalus microplus)[48], 2) the same peptide but fluorescently labeled at the N-terminus with tetramethylrhodamine (TMR) a red fluorescent dye, designated TMR-Rhisa-K-8 (TMR-RK8), and 3) a labeled peptide synthesized with the scrambled sequence of the kinin ligand, designated TMR-Scrambled. The sequence of TMR-RK8 was TMR-C-GTGEDQAFSPWGamide). The TMR-Scrambled kinin (TMR-C-GTQWGPGFEADSamide) served as a negative control for tissue labeling. All peptides were custom-synthesized and purchased from GenScript (Piscataway, NJ, USA) with a purity of ≥ 95% and the cysteine in bold in both sequences was added to attach the label. Experiments were replicated with independently synthesized batches (4 mg each) of labeled and unlabeled peptides, for reproducibility. Unlabeled RK8 was used as a competitive ligand to verify target-specific binding of the labeled TMR-RK8 (see Ligand Competition Assay). For cell assays, the peptide stock solutions (100 µM) were made in 1% dimethyl sulfoxide (DMSO) in Hank’s balanced salt solution (HBSS, Thermo Fisher, Waltham, USA). For fluorescent cell labeling, peptide working solutions (10 µM) were prepared in HBSS from stock solutions. For assays on the midgut, peptides were solubilized and diluted in a tick physiological saline consisting of 140 mM NaCl, 5 mM KCl, 1 mM MgCl2, 5 mM CaCl2, 4 mM NaHCO3, and 5 mM HEPES, pH 7.2[49].
Individual female ticks were immobilized on a Petri dish filled with wax by submerging their legs in melted wax heated with a soldering pencil (Electronic Control Soldering Station EC 1000, Weller, Apex, North Carolina, USA). Females were dissected under physiological saline following the protocol described by Tidwell et al.[51]. The tick was cut along the edge of the scutum/alloscutum using a stainless steel #12 scalpel blade (Integra Miltex, York, PA, USA), after which the scutum was removed with a pair of fine forceps. To expose the midgut for removal, the tracheae, Malpighian tubules, ovaries, rectal sac, and synganglion were removed with fine forceps in that order. The midgut was then carefully removed and placed into 200 µL of fresh tick saline (See Reagents and Peptides) on a single gasketed incubation chamber (500 µL, Size 22 × 40 mm, Electron Microscopy Sciences, Hatfield, PA). The midguts were then rinsed three times with the physiological tick saline for subsequent fluorescent labeling or activity experiments.
To determine the location of the tick kinin receptor in the midgut of ticks, a commercially synthesized Rhisa-kinin peptide 8[52] conjugated with a stable, red fluorophore (TMR-RK8) or a similarly labeled peptide of scrambled sequence (TMR-Scrambled) were applied to freshly dissected midguts ex vivo. For this, midguts of unfed adult females were incubated in ice-cold saline for 10 min. The saline was removed before incubation in 200 µL of 4’,6-diamidino-2-phenylindole dihydrochloride (DAPI, Sigma, 1 µg/mL in saline) for 1 min and rinsed with saline (200 µL) once. After saline removal, the midgut was incubated for 1 min with 200 µL of 10 µM of either TMR-Scrambled kinin or TMR-RK8, then the labeled peptide solution was removed by pipette and the midgut was rinsed twice with 200 µL saline. […]

Consider TMR-C-GTGEDQAFSPWGamide [TMR-RK8], for which, in assay [1] (1 µM TMR-RK8, confocal Leica SP8 with DIC, 1.1 µm Z-step, 13 slices), the “labeling of BMLK3 cells, Fig. S2 (in words)” value is on record as “observed in most cells”. In assay [1] (live BMLK3 cells, 10 µM labeled peptide, 1 min, HBSS, confocal Leica SP8, Ex 542 nm, Em 572–759 nm), the “labeling of BMLK3 cells (in words)” value is recorded as “showed specific labeling; also recorded: observed only in BMLK3 cells”. Besides, the “displacement of TMR-RK8 label by phalloidin (in words)” value in assay [2] (10 µM TMR-RK8, Alexa Fluor 488 Phalloidin 15 min, midgut muscle fibers) was “no observed phalloidin displacement of the TMR-RK8 label”. The “non-specific labeling below midgut surface (in words)” value in assay [2] (10 µM labeled peptide, 1 min, midguts ex vivo, Z-slices under the surface) was “aggregation of TMR-RK8 signal in what appears to be lipid vesicles; also recorded: non-specific labeling observed in lipid vesicles inside the midgut”. Besides, the “labeling of midgut surface muscles (in words)” value in assay [2] (10 µM labeled peptide, 1 min, tick saline pH 7.2, midguts of unfed females ex vivo, DAPI and Alexa 488-phalloidin, confocal 20X/40X) was “labeled the kinin receptor in muscles; also recorded: localized the kinin receptor to both circular and longitudinal muscles; also recorded: signal was observed in the tick midgut muscles under confocal microscopy; also recorded: observed only on the surface of the midgut; also recorded: binding specifically to the circular (white arrowheads) and longitudinal (white arrows) muscles”.
